Literature values as cited in article PMC8435724, “A Single L/D-Substitution at Q4 of the mInsA2-10 Epitope Prevents Type 1 Diabetes in Humanized NOD Mice” (Frontiers in Immunology, 2021).

What was measured:
[1] = system: insulin B15-23-reactive CD8^+ T cell clone G9C8; conditions: cytotoxicity and IFN-γ production assays
T cells of T1D patients = system: T cells of T1D patients
Description: Thus, human InsA2-10 is likely to be an immunogenic target for diabetic patients.

Substance	antagonist activity on clone G9C8 (in words) [1]	presence of specific T cell responses (in words) (T cells of T1D patients)
G6H: APL of insulin B15-23 (LYLVCGERG) substituted at position 6 (LYLVCHERG)	antagonist activity	–
GIVEQCCTSI [InsA1-10, human proinsulin (PPI) 90-99 or InsA1-10 (…)]	–	presence of specific T cell responses
R8L: APL of insulin B15-23 (LYLVCGERG) substituted at position 8 (LYLVCGELG)	antagonist activity	–
